The values that follow come from US9624208B2, “Benzoxazolinone compounds with selective activity in voltage-gated sodium channels” (Merck Sharp & Dohme Corp., priority 2012, dated 2017).

Structures are written as SMILES.

One assay deals with T1, human Nav1.7 (Homo sapiens, UniProt Q15858).
T1 construct: expressed in transfected cells
The experiment in a line: PatchXpress sodium current measurement, inactivated state block, Nav1.7. Type of assay: cell-based. The following applies: channels stably expressed in HEK 293 cells, double-pulse protocol, 22° C., read-out: potency for the Nav 1.7 sodium ion channel (1.7=). An outline of the steps: (§1)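 HEK293 cells stably expressing channel; automated patch clamp at 22 °C, double-pulse protocol: hold 20 mV below V½ inactivation, 8000 ms prepulse 7 mV above V½, 2 ms step to −120 mV, 20 ms test pulse to −20 mV. CsF-based internal (pH 7.3), NMDG/40 mM NaCl external (pH 7.5). Rundown-corrected % inhibition (≥2 concentrations) fitted to Hill equation for IC50.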

The next assay deals with T2, human Nav1.5 (Homo sapiens, UniProt Q14524).
T2 construct: expressed in transfected cells
T2 sequence (Q14524 whole entry): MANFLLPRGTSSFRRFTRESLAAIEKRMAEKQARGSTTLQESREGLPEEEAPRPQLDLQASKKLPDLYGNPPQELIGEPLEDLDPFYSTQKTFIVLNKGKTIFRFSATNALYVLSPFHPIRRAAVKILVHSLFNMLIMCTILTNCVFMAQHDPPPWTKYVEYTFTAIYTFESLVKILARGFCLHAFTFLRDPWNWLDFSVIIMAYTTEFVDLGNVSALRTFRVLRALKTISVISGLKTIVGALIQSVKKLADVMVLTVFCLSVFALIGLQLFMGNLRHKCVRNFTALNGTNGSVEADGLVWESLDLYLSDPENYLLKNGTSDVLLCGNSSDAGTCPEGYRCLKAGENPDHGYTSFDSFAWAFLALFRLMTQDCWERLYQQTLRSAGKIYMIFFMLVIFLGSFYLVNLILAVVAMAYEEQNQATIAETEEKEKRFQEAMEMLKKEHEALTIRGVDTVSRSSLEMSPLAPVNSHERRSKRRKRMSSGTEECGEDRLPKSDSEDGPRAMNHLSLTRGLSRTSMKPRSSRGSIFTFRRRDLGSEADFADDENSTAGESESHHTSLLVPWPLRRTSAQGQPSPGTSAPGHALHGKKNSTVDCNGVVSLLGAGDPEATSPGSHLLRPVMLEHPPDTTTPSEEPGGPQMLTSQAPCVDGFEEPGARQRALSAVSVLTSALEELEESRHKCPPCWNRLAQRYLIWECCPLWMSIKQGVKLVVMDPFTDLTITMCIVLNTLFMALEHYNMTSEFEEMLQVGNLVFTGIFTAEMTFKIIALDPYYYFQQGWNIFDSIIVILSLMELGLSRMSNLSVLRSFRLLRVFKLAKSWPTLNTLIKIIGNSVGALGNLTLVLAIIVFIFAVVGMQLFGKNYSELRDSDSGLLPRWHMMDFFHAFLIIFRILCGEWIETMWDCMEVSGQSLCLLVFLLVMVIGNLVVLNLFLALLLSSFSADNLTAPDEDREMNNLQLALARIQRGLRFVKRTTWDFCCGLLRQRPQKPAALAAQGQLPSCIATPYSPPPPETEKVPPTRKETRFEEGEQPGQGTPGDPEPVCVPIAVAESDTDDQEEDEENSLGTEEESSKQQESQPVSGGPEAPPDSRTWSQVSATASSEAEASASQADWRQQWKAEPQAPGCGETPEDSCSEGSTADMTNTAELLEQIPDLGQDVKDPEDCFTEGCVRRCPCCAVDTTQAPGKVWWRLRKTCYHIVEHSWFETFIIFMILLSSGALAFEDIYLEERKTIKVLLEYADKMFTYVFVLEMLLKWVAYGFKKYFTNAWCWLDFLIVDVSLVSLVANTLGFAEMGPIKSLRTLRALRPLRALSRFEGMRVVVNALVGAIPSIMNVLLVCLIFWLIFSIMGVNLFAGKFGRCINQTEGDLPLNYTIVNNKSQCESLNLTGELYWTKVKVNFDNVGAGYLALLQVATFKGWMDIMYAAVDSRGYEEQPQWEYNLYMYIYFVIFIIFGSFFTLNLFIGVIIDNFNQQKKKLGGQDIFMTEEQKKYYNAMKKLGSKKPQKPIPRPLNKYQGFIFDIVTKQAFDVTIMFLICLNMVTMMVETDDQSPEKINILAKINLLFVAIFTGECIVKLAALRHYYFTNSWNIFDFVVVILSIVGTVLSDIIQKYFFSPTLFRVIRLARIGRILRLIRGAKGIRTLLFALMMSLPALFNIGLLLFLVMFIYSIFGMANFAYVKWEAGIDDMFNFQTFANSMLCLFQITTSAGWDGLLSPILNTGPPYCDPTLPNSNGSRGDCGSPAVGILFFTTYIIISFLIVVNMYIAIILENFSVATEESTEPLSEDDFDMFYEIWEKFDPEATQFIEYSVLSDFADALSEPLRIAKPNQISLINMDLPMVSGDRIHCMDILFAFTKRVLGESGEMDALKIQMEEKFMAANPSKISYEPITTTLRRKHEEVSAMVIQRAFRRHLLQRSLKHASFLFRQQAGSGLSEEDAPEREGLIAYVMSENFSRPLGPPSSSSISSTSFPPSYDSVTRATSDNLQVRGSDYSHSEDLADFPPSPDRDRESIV
The experiment in a line: PatchXpress sodium current measurement, inactivated state block, Nav1.5. The format is cell-based. Particulars: determined by PatchXpress measurement, HEK 293 cells. An outline of the steps:
as §1

T1 sequence (Q15858 whole entry): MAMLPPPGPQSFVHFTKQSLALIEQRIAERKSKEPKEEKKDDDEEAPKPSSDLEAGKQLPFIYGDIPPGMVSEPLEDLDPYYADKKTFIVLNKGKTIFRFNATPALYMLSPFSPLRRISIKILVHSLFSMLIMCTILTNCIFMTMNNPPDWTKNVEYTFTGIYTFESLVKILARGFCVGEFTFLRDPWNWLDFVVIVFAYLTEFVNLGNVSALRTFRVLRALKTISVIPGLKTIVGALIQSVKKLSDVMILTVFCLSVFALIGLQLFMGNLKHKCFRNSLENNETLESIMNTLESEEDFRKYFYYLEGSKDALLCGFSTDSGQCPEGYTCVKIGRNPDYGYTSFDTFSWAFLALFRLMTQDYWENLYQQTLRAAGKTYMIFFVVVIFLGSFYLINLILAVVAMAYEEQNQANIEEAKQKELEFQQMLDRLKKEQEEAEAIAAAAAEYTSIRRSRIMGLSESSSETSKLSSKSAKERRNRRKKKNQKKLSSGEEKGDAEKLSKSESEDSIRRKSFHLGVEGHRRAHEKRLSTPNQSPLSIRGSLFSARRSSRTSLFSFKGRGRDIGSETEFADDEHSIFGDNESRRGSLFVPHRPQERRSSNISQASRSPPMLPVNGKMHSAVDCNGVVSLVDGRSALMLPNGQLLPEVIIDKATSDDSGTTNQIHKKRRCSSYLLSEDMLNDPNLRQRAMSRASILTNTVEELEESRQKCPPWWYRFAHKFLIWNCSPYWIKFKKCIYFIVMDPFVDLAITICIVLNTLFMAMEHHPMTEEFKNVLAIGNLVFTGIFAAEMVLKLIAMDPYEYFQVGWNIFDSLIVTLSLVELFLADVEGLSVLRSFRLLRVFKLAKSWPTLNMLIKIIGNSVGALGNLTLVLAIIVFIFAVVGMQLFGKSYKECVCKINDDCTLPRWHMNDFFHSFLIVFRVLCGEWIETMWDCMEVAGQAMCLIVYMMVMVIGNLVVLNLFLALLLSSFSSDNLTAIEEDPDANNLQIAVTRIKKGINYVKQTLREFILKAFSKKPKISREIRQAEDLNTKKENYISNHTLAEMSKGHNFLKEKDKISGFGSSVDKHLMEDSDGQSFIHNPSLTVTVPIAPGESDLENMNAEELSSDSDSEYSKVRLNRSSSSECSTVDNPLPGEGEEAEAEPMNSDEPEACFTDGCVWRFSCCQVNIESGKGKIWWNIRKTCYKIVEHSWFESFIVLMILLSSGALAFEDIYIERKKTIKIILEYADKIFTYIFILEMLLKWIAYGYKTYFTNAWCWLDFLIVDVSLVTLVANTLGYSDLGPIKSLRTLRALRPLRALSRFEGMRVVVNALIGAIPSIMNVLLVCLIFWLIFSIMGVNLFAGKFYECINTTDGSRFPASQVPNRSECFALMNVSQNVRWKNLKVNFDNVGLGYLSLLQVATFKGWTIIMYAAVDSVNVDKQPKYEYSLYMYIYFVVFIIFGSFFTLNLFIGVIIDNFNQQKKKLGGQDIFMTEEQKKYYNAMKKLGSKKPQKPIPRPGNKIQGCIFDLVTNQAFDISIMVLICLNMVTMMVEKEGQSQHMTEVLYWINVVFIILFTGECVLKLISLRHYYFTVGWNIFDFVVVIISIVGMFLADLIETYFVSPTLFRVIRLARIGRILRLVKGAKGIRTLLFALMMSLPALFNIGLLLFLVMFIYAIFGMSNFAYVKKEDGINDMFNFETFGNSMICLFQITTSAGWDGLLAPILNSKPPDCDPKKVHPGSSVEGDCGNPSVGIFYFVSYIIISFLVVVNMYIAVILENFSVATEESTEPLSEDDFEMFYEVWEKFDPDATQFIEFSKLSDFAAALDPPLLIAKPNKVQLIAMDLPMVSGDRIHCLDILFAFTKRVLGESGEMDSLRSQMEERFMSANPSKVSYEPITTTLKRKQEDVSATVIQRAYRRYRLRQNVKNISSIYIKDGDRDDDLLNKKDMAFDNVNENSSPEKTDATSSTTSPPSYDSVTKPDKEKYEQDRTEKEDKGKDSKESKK

On to `C[C@H](c1cccc(C#CCN)c1)n1c(=O)oc2cc(S(=O)(=O)Nc3cccc(F)n3)c(F)cc21` [Ex21-21, 3-{(1R)-1-[3-(3-aminoprop-1-yn-1-yl)phenyl]ethyl}-5-fluoro-N-(6-fluoropyridin-2-yl)-2-oxo-2,3-dihydro-1,3-benzoxazole-6-sulfonamide], for which, on human Nav1.7, the IC50 is 155 nM. For the same compound, the “ratio of Nav 1.5:Nav 1.7 potency” value at human Nav1.5 was found to be 193.
On to `Cc1c(C#CCN)cccc1[C@@H](C)n1c(=O)oc2cc(S(=O)(=O)Nc3cccc(F)n3)c(F)cc21` [Ex21-22, 3-{(1R)-1-[3-(3-aminoprop-1-yn-1-yl)-2-methylphenyl]ethyl}-5-fluoro-N-(6-fluoropyridin-2-yl)-2-oxo-2,3-dihydro-1,3-benzoxazole-6-sulfonamide], for which the IC50 at human Nav1.7 amounted to 136 nM. In addition, the “ratio of Nav 1.5:Nav 1.7 potency” value on human Nav1.5 is listed as 220.
As to `Cc1cc2c(cc1S(=O)(=O)Nc1cccc(F)n1)oc(=O)n2[C@H](C)c1cccc(C#CCN)c1` [Ex21-23, 3-{(1R)-1-[3-(3-aminoprop-1-yn-1-yl)phenyl]ethyl}-N-(6-fluoropyridin-2-yl)-5-methyl-2-oxo-2,3-dihydro-1,3-benzoxazole-6-sulfonamide], the IC50 on human Nav1.7 amounted to 90 nM. Further, the “ratio of Nav 1.5:Nav 1.7 potency” value on human Nav1.5 was determined as 251.
Turning to `Cc1cc2c(cc1S(=O)(=O)Nc1cccc(F)n1)oc(=O)n2[C@H](C)c1cccc(C#CCN)c1C` [Ex21-24, 3-{(1R)-1-[3-(3-aminoprop-1-yn-1-yl)-2-methylphenyl]ethyl}-N-(6-fluoropyridin-2-yl)-5-methyl-2-oxo-2,3-dihydro-1,3-benzoxazole-6-sulfonamide], the IC50 at human Nav1.7 stood at 102 nM. The “ratio of Nav 1.5:Nav 1.7 potency” value on human Nav1.5 came out at 240.
As for `Cc1cc2c(cc1S(=O)(=O)Nc1cccc(F)n1)oc(=O)n2[C@H](C)c1cccc(C)c1C#C[C@@H]1CCCC[C@@H]1N` [Ex21-25, 3-[(1R)-1-(2-{[(1S,2S)-2-aminocyclohexyl]-ethynyl}-3-methylphenyl)ethyl]-N-(6-fluoropyridin-2-yl)-5-methyl-2-oxo-2,3-dihydro-1,3-benzoxazole-6-sulfonamide], at human Nav1.7, the IC50 came to 9 nM. The “ratio of Nav 1.5:Nav 1.7 potency” value on human Nav1.5 is 167.
The corresponding values for `Cc1cc2c(cc1S(=O)(=O)Nc1cccc(F)n1)oc(=O)n2[C@H](C)c1cccc(C)c1C#C[C@H]1CCCC[C@H]1N` [Ex21-26, 3-[(1R)-1-(2-{[(1R,2R)-2-aminocyclohexyl]-ethynyl}-3-methylphenyl)ethyl]-N-(6-fluoropyridin-2-yl)-5-methyl-2-oxo-2,3-dihydro-1,3-benzoxazole-6-sulfonamide] are 16 nM and 192.
In the case of `Cc1cccc([C@@H](C)n2c(=O)oc3cc(S(=O)(=O)Nc4cccc(F)n4)c(F)cc32)c1C#C[C@@H]1CCCC[C@@H]1N` [Ex21-27, 3-[(1R)-1-(2-{[(1S,2S)-2-aminocyclohexyl]-ethynyl}-3-methylphenyl)ethyl]-5-fluoro-N-(6-fluoropyridin-2-yl)-2-oxo-2,3-dihydro-1,3-benzoxazole-6-sulfonamide], the IC50 on human Nav1.7 was found to be 32 nM. Also, the “ratio of Nav 1.5:Nav 1.7 potency” value on human Nav1.5 was 476.
The like results for `C[C@H](c1cccc(CCCN)c1)n1c(=O)oc2cc(S(=O)(=O)Nc3cccc(F)n3)c(F)cc21` [Ex22-1, 3-{(1R)-1-[3-(3-aminopropyl)phenyl]ethyl}-5-fluoro-N-(6-fluoropyridin-2-yl)-2-oxo-2,3-dihydro-1,3-benzoxazole-6-sulfonamide] were, in that order, 55 nM and 380.
The corresponding values for `Cc1cc2c(cc1S(=O)(=O)Nc1cccc(F)n1)oc(=O)n2[C@H](C)c1cccc(CCCN)c1` [Ex22-2, 3-{(1R)-1-[3-(3-amino-propyl)phenyl]ethyl}-N-(6-fluoropyridin-2-yl)-5-methyl-2-oxo-2,3-dihydro-1,3-benzoxazole-6-sulfonamide] are 70 nM and 305.
The like results for `Cc1c(CCCN)cccc1[C@@H](C)n1c(=O)oc2cc(S(=O)(=O)Nc3cccc(F)n3)c(F)cc21` [Ex22-3, 3-{(1R)-1-[3-(3-amino-propyl)-2-methylphenyl]ethyl}-5-fluoro-N-(6-fluoropyridin-2-yl)-2-oxo-2,3-dihydro-1,3-benzoxazole-6-sulfonamide] were, in that order, 101 nM and 297.
In the case of `C[C@H](c1cccc(CCCN2CCC2)c1)n1c(=O)oc2cc(S(=O)(=O)Nc3cccc(F)n3)c(F)cc21` [Ex22-4, 3-[(1R)-1-{3-[3-(azetidin-1-yl)propyl]phenyl}ethyl]-5-fluoro-N-(6-fluoro-pyridin-2-yl)-2-oxo-2,3-dihydro-1,3-benzoxazole-6-sulfonamide], the IC50 at human Nav1.7 was 169 nM. In addition, the “ratio of Nav 1.5:Nav 1.7 potency” value at human Nav1.5 came to 178.
`C[C@H](c1ccccc1N1CCNCC1)n1c(=O)oc2cc(S(=O)(=O)Nc3cccc(F)n3)c(F)cc21` [Ex23-1, 5-fluoro-N-(6-fluoropyridin-2-yl)-2-oxo-3-{(1R)-1-[2-(piperazin-1-yl)phenyl]ethyl}-2,3-dihydro-1,3-benzoxazole-6-sulfonamide]: at human Nav1.7, the IC50 worked out at 150 nM. Further, the “ratio of Nav 1.5:Nav 1.7 potency” value on human Nav1.5 came to 200.
The corresponding values for `Cc1cc2c(cc1S(=O)(=O)Nc1cccc(F)n1)oc(=O)n2[C@H](C)c1ccccc1N1CCNCC1` [Ex23-2, N-(6-fluoropyridin-2-yl)-5-methyl-2-oxo-3-{(1R)-1-[2-(piperazin-1-yl)phenyl]ethyl}-2,3-dihydro-1,3-benzoxazole-6-sulfonamide] are 74 nM and 405.
